From patent US6017911A, “Pyridonecarboxylic acid derivatives and intermediates for the synthesis thereof” (Dainippon Pharmaceutical Co., Ltd., priority 1996, dated 2000)
Values after ≈ are worked out from the molar mass of the structure shown. Where two headings read alike, the source gives them in different places.

Assays:
[1] = system: Pseudomonas aeruginosa No 12; experiment: In vitro antibacterial activity (MIC), Pseudomonas aeruginosa No 12; assay type: cell-based; conditions: NO12, read-out: Minimum inhibitory concentration (MIC)
[2] = system: Staphylococcus aureus 50774; experiment: In vitro antibacterial activity (MIC), Staphylococcus aureus 50774; assay type: cell-based
[3] = system: Staphylococcus aureus 50774; experiment: Effect on systemic infection in mice; assay type: in vivo, mice (male Std-ddy strain); conditions: 168 h; Staphylococcus aureus 50774 i.p. infection; oral, twice (immediately and 6 h after infection); survival 7 days after infection
Description: The effects (ED50; mg/kg) on systemic infection in mice were determined as follows: Male Std-ddy strain mice (weighing about 20 g) were infected with each of the pathogenic bacteria shown in Table 2 by administering 5×10^3 viable cells intraperitoneally to each mouse. Then, a suspension of each test compound in 0.4% carboxymethylcellulose was orally administered twice, i.e., immediately after infection and 6 hours after infection. Seven days after infection, the ED50 value was calculated from the survival rate of each mouse group by probit analysis.
As a reference compound, there was used enoxacin [1-ethyl-6-fluoro-1,4-dihydro-4-oxo-7-(1-piperazinyl-1,8-naphthyridine-3-carboxylic acid; hereinafter abbreviated as ENX] that is an excellent antibacterial agent currently on the market.
The test compounds shown in the following Tables 1 and 2 are identified by the respective numbers of the Examples which will be given later.

[4] = system: Escherichia coli NIHJ JC-2; experiment: In vitro antibacterial activity (MIC), Escherichia coli NIHJ JC-2; assay type: cell-based; conditions: NIHJJC2, read-out: Minimum inhibitory concentration (MIC)
[5] = system: Staphylococcus aureus MS16405; experiment: In vitro antibacterial activity (MIC), Staphylococcus aureus MS16405; assay type: cell-based
[6] = Staphylococcus aureus 50774, read-out: Minimum inhibitory concentration (MIC)
[7] = Staphylococcus aureus MS16405, read-out: Minimum inhibitory concentration (MIC)

Row | SMILES | MIC [1] [µg/mL] | MIC [2, 6] [µg/mL] | ED50 [3] [mg/kg] | MIC [4] [µg/mL] | MIC [5, 7] [µg/mL] | MIC ([2]; Staphylococcus aureus, 50774, read-out: Minimum inhibitory concentration (MIC)) [µg/mL] | MIC ([5]; Staphylococcus aureus, MS16405, read-out: Minimum inhibitory concentration (MIC)) [µg/mL]
1 | N[C@H]1CN(c2c(F)cc3c(=O)c(C(=O)O)cn(C4CC4)c3c2Cl)[C@@H]2CCO[C@@H]21 (relative stereo) [Example 15] | 0.78 (≈ 1.91 µM) | 0.025 (≈ 0.0613 µM) | 1.12 | 0.013 (≈ 0.0319 µM) | 0.78 (≈ 1.91 µM) |  | 
2 | COc1c(N2C[C@@H](N)[C@H]3OCC[C@H]32)c(F)c(C)c2c(=O)c(C(=O)O)cn(C3CC3)c12 (relative stereo) [Example 16] | 1.56 (≈ 3.74 µM) | 0.006 (≈ 0.0144 µM) | 0.78 | 0.1 (≈ 0.24 µM) | 1.56 (≈ 3.74 µM) |  | 
3 | N[C@H]1CN(c2c(F)cc3c(=O)c(C(=O)O)cn(C4CC4)c3c2F)[C@@H]2CCO[C@@H]21 (relative stereo) [Example 18] | 0.39 (≈ 0.996 µM) | 0.025 (≈ 0.0639 µM) | 0.928 | 0.006 (≈ 0.0153 µM) | 1.56 (≈ 3.99 µM) |  | 
4 | COc1c(N2C[C@@H](N)[C@H]3OCCC[C@H]32)c(F)cc2c(=O)c(C(=O)O)cn(C3CC3)c12 (relative stereo) [Example 19] | 1.56 (≈ 3.74 µM) | 0.013 (≈ 0.0311 µM) | 0.928 | 0.1 (≈ 0.24 µM) | 0.78 (≈ 1.87 µM) |  | 
5 | CCn1cc(C(=O)O)c(=O)c2cc(F)c(N3CCNCC3)nc21 [ENX, reference compound] | 0.78 (≈ 2.44 µM) |  | 9.89 | 0.05 (≈ 0.156 µM) |  | 0.39 (≈ 1.22 µM) | 100 (≈ 312 µM)
